The record followed here is US20240208992A1, “MACROCYCLES AS CFTR MODULATORS” (Idorsia Pharmaceuticals Ltd, priority 2021, published 2024).

The target in the assay is human F508del-CFTR (Homo sapiens, UniProt P13569, DEL508-508). The assay can be described thus: F508del-CFTR cell surface expression (corrector activity), DiscoveRx ß-galactosidase complementation chemiluminescence assay in recombinant U2OS cell line.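 As to all read-outs here: U2OS cells co-expressing ProLink-tagged F508del-CFTR and a membrane-anchored enzyme acceptor, where more surface CFTR restores β-galactosidase activity measured by chemiluminescence.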 The following applies: U2OS cell line, 16h compound incubation; for EC50: EC50, F508del-CFTR cell surface expression, geomean values; for Emax: U2OS, in relation to the Emax of the corrector lumacaftor (=100%), arithmetic mean values.
human F508del-CFTR, sequence (P13569 with tags, fused parts or gaps DEL508-508): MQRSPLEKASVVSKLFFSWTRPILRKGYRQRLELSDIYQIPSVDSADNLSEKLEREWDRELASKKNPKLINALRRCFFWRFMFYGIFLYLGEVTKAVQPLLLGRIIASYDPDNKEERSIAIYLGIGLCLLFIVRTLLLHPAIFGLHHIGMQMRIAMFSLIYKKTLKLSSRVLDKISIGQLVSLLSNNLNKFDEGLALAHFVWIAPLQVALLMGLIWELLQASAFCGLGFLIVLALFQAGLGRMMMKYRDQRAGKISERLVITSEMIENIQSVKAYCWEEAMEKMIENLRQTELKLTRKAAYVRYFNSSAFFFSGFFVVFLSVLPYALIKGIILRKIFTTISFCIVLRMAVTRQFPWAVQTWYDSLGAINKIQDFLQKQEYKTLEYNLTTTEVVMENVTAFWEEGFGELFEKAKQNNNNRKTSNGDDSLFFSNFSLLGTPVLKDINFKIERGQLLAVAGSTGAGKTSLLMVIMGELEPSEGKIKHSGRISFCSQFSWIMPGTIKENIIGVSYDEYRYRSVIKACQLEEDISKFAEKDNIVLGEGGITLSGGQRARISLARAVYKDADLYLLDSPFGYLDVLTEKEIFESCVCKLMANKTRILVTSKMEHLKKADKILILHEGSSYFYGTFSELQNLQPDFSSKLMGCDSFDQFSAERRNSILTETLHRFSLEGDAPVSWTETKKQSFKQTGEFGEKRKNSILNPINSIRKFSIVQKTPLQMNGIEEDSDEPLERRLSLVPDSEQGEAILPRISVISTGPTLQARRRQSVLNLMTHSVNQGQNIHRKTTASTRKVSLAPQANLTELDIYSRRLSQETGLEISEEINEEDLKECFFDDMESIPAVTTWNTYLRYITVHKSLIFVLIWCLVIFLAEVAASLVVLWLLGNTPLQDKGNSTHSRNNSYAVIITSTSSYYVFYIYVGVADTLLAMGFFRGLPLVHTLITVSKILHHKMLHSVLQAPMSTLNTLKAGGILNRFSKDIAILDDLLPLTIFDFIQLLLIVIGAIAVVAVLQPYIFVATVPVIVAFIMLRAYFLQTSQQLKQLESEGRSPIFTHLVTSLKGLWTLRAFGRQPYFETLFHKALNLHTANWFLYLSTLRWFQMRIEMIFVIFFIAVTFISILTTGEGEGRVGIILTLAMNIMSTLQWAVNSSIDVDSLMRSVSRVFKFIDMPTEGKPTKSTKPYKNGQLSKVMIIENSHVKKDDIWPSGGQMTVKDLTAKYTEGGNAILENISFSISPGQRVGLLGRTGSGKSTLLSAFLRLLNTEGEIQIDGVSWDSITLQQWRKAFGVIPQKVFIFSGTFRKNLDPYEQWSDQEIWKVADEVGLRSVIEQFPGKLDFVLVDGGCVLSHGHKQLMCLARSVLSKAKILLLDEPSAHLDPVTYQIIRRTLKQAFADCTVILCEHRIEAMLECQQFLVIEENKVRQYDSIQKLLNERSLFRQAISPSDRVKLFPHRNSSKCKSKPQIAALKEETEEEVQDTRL

Regarding `COc1cccc(CCNC(=O)[C@@H]2CC(=O)N(C)[C@@H](CC3CCCCC3)C(=O)N(CC[C@H]3CCCCO3)CC(=O)N[C@H](Cc3ccccc3)COc3ccc4ccccc4c3C(=O)N2)c1` (racemic) [Example 299, (3RS,7S,13R)-13-benzyl-7-(cyclohexylmethyl)-N-(3-methoxyphenethyl)-6-methyl-1,5,8,11-tetraoxo-9-(2-((SR)-tetrahydro-2H-pyran-2-yl)ethyl)-1,2,3,4,5,6,7,8,9,10,11,12,13,14-tetradecahydronaphtho[1,2-p][1]oxa[4,7,10,14]tetraazacycloheptadecine-3-carboxamide], the concentration for a half-maximal effect (EC50) is 109 nM and the Emax turned out to be 136%.

As to `COc1cccc(CCNC(=O)[C@@H]2CC(=O)N(C)[C@@H](CC3CCCC3)C(=O)N(CCC3CCCCC3)CC(=O)N[C@H](Cc3ccccc3)COc3ccc4ccccc4c3C(=O)N2)c1` (racemic) [Example 300, (3RS,7S,13R)-13-benzyl-9-(2-cyclohexylethyl)-7-(cyclopentylmethyl)-N-(3-methoxyphenethyl)-6-methyl-1,5,8,11-tetraoxo-1,2,3,4,5,6,7,8,9,10,11,12,13,14-tetradecahydronaphtho[1,2-p][1]oxa[4,7,10,14]tetraazacycloheptadecine-3-carboxamide], the Emax is 210%.

As to `COc1cccc(CCNC(=O)[C@@H]2CC(=O)N(C)[C@@H](CC3CCCCC3)C(=O)N(CCC3CCCCC3)CC(=O)N[C@H](Cc3ccccc3)COc3ccc4ccccc4c3C(=O)N2)c1` (racemic) [Example 301, (3RS,7S,13R)-13-benzyl-9-(2-cyclohexylethyl)-7-(cyclohexylmethyl)-N-(3-methoxyphenethyl)-6-methyl-1,5,8,11-tetraoxo-1,2,3,4,5,6,7,8,9,10,11,12,13,14-tetradecahydronaphtho[1,2-p][1]oxa[4,7,10,14]tetraazacycloheptadecine-3-carboxamide], the Emax amounted to 202%. As for `COc1cccc(CCNC(=O)[C@@H]2CC(=O)N(C)[C@@H](CC3CCC3)C(=O)N(CCC3CCCCC3)CC(=O)N[C@H](Cc3ccccc3)COc3ccc4ccccc4c3C(=O)N2)c1` (racemic) [Example 302, (3RS,7S,13R)-13-benzyl-7-(cyclobutylmethyl)-9-(2-cyclohexylethyl)-N-(3-methoxyphenethyl)-6-methyl-1,5,8,11-tetraoxo-1,2,3,4,5,6,7,8,9,10,11,12,13,14-tetradecahydronaphtho[1,2-p][1]oxa[4,7,10,14]tetraazacycloheptadecine-3-carboxamide], the EC50 was determined as 106 nM and the Emax came out at 193%. Consider `COc1cccc(CCNC(=O)[C@@H]2CC(=O)N(C)[C@@H](CC(C)C)C(=O)N(CCC3CCCCC3)CC(=O)N[C@H](Cc3ccccc3)COc3ccc4ccccc4c3C(=O)N2)c1` (racemic) [Example 303, (3RS,7S,13R)-13-benzyl-9-(2-cyclohexylethyl)-7-isobutyl-N-(3-methoxyphenethyl)-6-methyl-1,5,8,11-tetraoxo-1,2,3,4,5,6,7,8,9,10,11,12,13,14-tetradecahydronaphtho[1,2-p][1]oxa[4,7,10,14]tetraazacycloheptadecine-3-carboxamide], for which the EC50 worked out at 180 nM and the Emax turned out to be 275%. Regarding `COc1cccc2c1C(=O)N[C@H](C(=O)NCCc1ccc3c(c1)OCO3)CC(=O)N(C)[C@@H](CC(C)C)C(=O)N(CC[C@H]1CCCCO1)CC(=O)N[C@H](Cc1ccccc1)CO2` (racemic) [Example 304, (3R,9S,13S)-N-(2-(benzo[d][1,3]dioxol-5-yl)ethyl)-3-benzyl-9-isobutyl-16-methoxy-10-methyl-5,8,11,15-tetraoxo-7-(2-((RS)-tetrahydro-2H-pyran-2-yl)ethyl)-2,3,4,5,6,7,8,9,10,11,12,13,14,15-tetradecahydrobenzo[p][1]oxa[4,7,10,14]tetraazacycloheptadecine-13-carboxamide], the concentration giving a half-maximal response (EC50) came to 581 nM and the maximal response (Emax) stood at 193%. Turning to `COc1cccc(CCNC(=O)[C@@H]2CC(=O)N(C)[C@@H](CC(C)C)C(=O)N(CC[C@H]3CCCCO3)CC(=O)N[C@H](Cc3ccccc3)COc3cccc(OC)c3C(=O)N2)c1` (racemic) [Example 310], the EC50 stood at 788 nM and the maximal effect (Emax) was 202%.

By EC50 is commonly meant the concentration needed to bring the measured effect to its halfway point. A word on the Emax: it is the greatest response seen or fitted, relative to the assay's reference.
